Test results as given in article PMC3958129, “Enzyme kinetics and distinct modulation of the protein kinase N family of kinases by lipid activators and small molecule inhibitors” (Bioscience Reports, 2014).
Where two headings read alike, the source gives them in different places.

How the values were obtained:
[1] = target: T1, PKN2 (Homo sapiens, UniProt Q16513); test: Lipid activation of PKN2 kinase activity, off-chip mobility shift assay; assay type: biochemical; parameters: Full-length, FLAG-tagged human PKN1, PKN2 and PKN3 were expressed in mammalian HEK-293 cells; host or cells: HEK-293 (transient transfection, pcDNA4/TO); conditions: for effect on PKN2 kinase activity: in words, saturating ATP; for PKN2 Maximal fold activation: increase in initial rate
Protocol: (§1) Lipids were supplied as a solid powders, ethanol, or chloroform solutions. All solids were dissolved directly into assay buffer and briefly water bath sonicated at room temperature for 10 min. Lipids supplied as solutions in organic solvent were dried under a gentle stream of nitrogen, resuspended in assay buffer, and similarly sonicated. All lipids were prepared fresh daily.
(§2) The activity of all PKN proteins was monitored through the use of a highly sensitive off-chip mobility shift assay utilizing a LabChip EZ Reader II instrument (Caliper Life Sciences/PerkinElmer); this assay format has been described elsewhere. Kinase activity was monitored through the phosphorylation of a 5-FAM-labelled PKN substrate peptide found through Pfizer in-house optimization efforts and derived from the amino acid sequence of GSK3α (accession no. AAH51865.1) with the following sequence: 5-FAM-C6-[…]-NH2. The likely site of phosphorylation is underlined, as determined through comparison with the published phosphorylation consensus sequence for PKN1 and PKN3 substrates. Reaction buffer contained 25 mM Tris, pH 8.0, 5 mM MgCl2, 0.002% CHAPS and 2 mM DTT, with indicated protein, ATP and peptide concentrations. Peptide concentration was adjusted according to purity and peptide content. For inhibition studies, the inhibitor was pre-incubated with enzyme for 15 min at room temperature. All reactions were initiated with ATP and conducted at room temperature (~22°C). Reactions were terminated by the addition of EDTA, pH 8.0, at a final concentration of 25 mM. All reaction rates were determined to be linear with respect to time and enzyme concentration where no more than 20% of peptide substrate had been converted to product. Aliquots of each reaction were transferred in duplicate to a 384-well plate and analysed on a LabChip EZ Reader II with separation buffer containing 100 mM Hepes, pH 7.5, 0.015% Brij-35, 1 mM EDTA, 0.1% CR3 coating reagent, 1×CR8 coating reagent and 5% DMSO, with the following settings: downstream voltage: −500 V, upstream voltage: −2300 V, base pressure: −0.5 psi; screen pressure: −1.7 psi. […]
(§3) Figure 2 PKN responses to lipid activators in biochemical assays Lipids were prepared as described under the Experimental section, and kinase activity of PKN isoforms was measured using off-chip mobility shift assay described in the Methods section. Each lipid was titrated in the presence of 1 nM, 5 nM and 3 nM PKN1–3, respectively, 3 μM peptide and 500 μM ATP. vi is the initial rate at each concentration of lipid activator and vo is the initial rate in the absence of lipid.

[2] = target: T2, PKN1 (Homo sapiens, UniProt Q16512); test: Lipid activation of PKN1 kinase activity, off-chip mobility shift assay; assay type: biochemical; parameters: Full-length, FLAG-tagged human PKN1, PKN2 and PKN3 were expressed in mammalian HEK-293 cells; host or cells: HEK-293 (transient transfection, pcDNA4/TO); conditions: saturating ATP (500 μM), 3 μM peptide, 1 nM PKN1; for PKN1 Maximal fold activation: increase in initial rate; for EC50: lipid activator
Protocol: as §1, §2, §3

[3] = target: T3, PKN3 (Homo sapiens, UniProt Q6P5Z2); test: Lipid activation of PKN3 kinase activity, off-chip mobility shift assay; assay type: biochemical; parameters: Full-length, FLAG-tagged human PKN1, PKN2 and PKN3 were expressed in mammalian HEK-293 cells; conditions: increase in initial rate; saturating ATP (500 μM), 3 μM peptide, 3 nM PKN3
Protocol: as §1
The activity of all PKN proteins was monitored through the use of a highly sensitive off-chip mobility shift assay utilizing a LabChip EZ Reader II instrument (Caliper Life Sciences/PerkinElmer); this assay format has been described elsewhere. Kinase activity was monitored through the phosphorylation of a 5-FAM-labelled PKN substrate peptide found through Pfizer in-house optimization efforts and derived from the amino acid sequence of GSK3α (accession no. AAH51865.1) with the following sequence: 5-FAM-C6-[…]-NH2. The likely site of phosphorylation is underlined, as determined through comparison with the published phosphorylation consensus sequence for PKN1 and PKN3 substrates. Reaction buffer contained 25 mM Tris, pH 8.0, 5 mM MgCl2, 0.002% CHAPS and 2 mM DTT, with indicated protein, ATP and peptide concentrations. Peptide concentration was adjusted according to purity and peptide content. For inhibition studies, the inhibitor was pre-incubated with enzyme for 15 min at room temperature. All reactions were initiated with ATP and conducted at room temperature (~22°C). Reactions were terminated by the addition of EDTA, pH 8.0, at a final concentration of 25 mM. All reaction rates were determined to be linear with respect to time and enzyme concentration where no more than 20% of peptide substrate had been converted to product. Aliquots of each reaction were transferred in duplicate to a 384-well plate and analysed on a LabChip EZ Reader II with separation buffer containing 100 mM Hepes, pH 7.5, 0.015% Brij-35, 1 mM EDTA, 0.1% CR3 coating reagent, 1×CR8 coating reagent and 5% DMSO, with the following settings: downstream voltage: −500 V, upstream voltage: −2300 V, base pressure: −0.5 psi; screen pressure: −1.7 psi.
Ki values for representative inhibitors were determined by fitting initial reaction velocities to eqn (2) for competitive inhibition using the method of non-linear least-squares using GraphPad Prism. Turnover number (kcat) was calculated by normalizing Vmax values for enzyme concentration.
as §3

[4] = tested on: PKN1, PKN2 and PKN3; test: PKN isoform selectivity from Ki values (Ki ratio); assay type: biochemical, human; conditions: for Isoform selectivity: isoform(s) preferred, defined as ~10-fold or greater Ki ratio
Text: The activity of all PKN proteins was monitored through the use of a highly sensitive off-chip mobility shift assay utilizing a LabChip EZ Reader II instrument (Caliper Life Sciences/PerkinElmer); this assay format has been described elsewhere [31]. […] The likely site of phosphorylation is underlined, as determined through comparison with the published phosphorylation consensus sequence for PKN1 and PKN3 substrates [27]. […] Peptide concentration was adjusted according to purity and peptide content. For inhibition studies, the inhibitor was pre-incubated with enzyme for 15 min at room temperature. All reactions were initiated with ATP and conducted at room temperature (~22°C).

[5] = target: T2, PKN1; test: PKN1 kinase inhibition, off-chip mobility shift assay; assay type: biochemical; parameters: Full-length, FLAG-tagged human PKN1, PKN2 and PKN3 were expressed in mammalian HEK-293 cells; host or cells: HEK-293 (transient transfection, pcDNA4/TO)
Protocol: (§4) The activity of all PKN proteins was monitored through the use of a highly sensitive off-chip mobility shift assay utilizing a LabChip EZ Reader II instrument (Caliper Life Sciences/PerkinElmer); this assay format has been described elsewhere [31]. […] Peptide concentration was adjusted according to purity and peptide content. For inhibition studies, the inhibitor was pre-incubated with enzyme for 15 min at room temperature. All reactions were initiated with ATP and conducted at room temperature (~22°C).
(§5) All data were globally fit using non-linear regression and GraphPad Prism software. Non-linear data were converted to double-reciprocal Lineweaver–Burk plots for visual and presentation purposes only. Kinetic data were analysed in duplicate, and each plot is representative of at least two independent experiments.
(§6) For enzyme inhibition studies, data were fit to eqns (2)–(4) for competitive, non-competitive and uncompetitive inhibition, respectively: (2) v=Vmax[S]/[S]+KM1+[I]/Ki (3) v=Vmax[S]/([S]+KM)1+[I]/Ki (4) v=Vmax[S]/[S]1+[I]/αKi+KM
(§7) For eqns (1)–(4), v is measured velocity, Vmax is maximum velocity, [ATP], [Pep] and [S] are concentrations of ATP, peptide and varied substrate, respectively; Kia is the equilibrium dissociation constant of ATP, KM,ATP, KM,Pep and KM are the Michaelis–Menten constants for ATP, peptide and the varied substrate, respectively. [I] is the inhibitor concentration, α describes the preference for inhibitor binding to either free or substrate bound enzyme and Ki is the inhibitor equilibrium dissociation constant.

[6] = target: T3, PKN3; test: PKN3 kinase inhibition, off-chip mobility shift assay; assay type: biochemical; parameters: Full-length, FLAG-tagged human PKN1, PKN2 and PKN3 were expressed in mammalian HEK-293 cells
Protocol: as §4, §5, §6, §7

[7] = target: T1, PKN2; test: PKN2 kinase inhibition, off-chip mobility shift assay; assay type: biochemical; parameters: Full-length, FLAG-tagged human PKN1, PKN2 and PKN3 were expressed in mammalian HEK-293 cells; host or cells: HEK-293 (transient transfection, pcDNA4/TO)
Protocol: as §4, §5, §6, §7

[8] = saturating ATP (500 μM), 3 μM peptide, 5 nM PKN2
[9] = absence of lipids, fit to competitive inhibition, ±S.D., n=2, read-out: PKN1, Ki
[10] = absence of lipids, fit to competitive inhibition, ±S.D., n=2, read-out: PKN3, Ki
[11] = absence of lipids, fit to competitive inhibition, ±S.D., n=2, read-out: PKN2, Ki

T3 sequence (Q6P5Z2 whole entry): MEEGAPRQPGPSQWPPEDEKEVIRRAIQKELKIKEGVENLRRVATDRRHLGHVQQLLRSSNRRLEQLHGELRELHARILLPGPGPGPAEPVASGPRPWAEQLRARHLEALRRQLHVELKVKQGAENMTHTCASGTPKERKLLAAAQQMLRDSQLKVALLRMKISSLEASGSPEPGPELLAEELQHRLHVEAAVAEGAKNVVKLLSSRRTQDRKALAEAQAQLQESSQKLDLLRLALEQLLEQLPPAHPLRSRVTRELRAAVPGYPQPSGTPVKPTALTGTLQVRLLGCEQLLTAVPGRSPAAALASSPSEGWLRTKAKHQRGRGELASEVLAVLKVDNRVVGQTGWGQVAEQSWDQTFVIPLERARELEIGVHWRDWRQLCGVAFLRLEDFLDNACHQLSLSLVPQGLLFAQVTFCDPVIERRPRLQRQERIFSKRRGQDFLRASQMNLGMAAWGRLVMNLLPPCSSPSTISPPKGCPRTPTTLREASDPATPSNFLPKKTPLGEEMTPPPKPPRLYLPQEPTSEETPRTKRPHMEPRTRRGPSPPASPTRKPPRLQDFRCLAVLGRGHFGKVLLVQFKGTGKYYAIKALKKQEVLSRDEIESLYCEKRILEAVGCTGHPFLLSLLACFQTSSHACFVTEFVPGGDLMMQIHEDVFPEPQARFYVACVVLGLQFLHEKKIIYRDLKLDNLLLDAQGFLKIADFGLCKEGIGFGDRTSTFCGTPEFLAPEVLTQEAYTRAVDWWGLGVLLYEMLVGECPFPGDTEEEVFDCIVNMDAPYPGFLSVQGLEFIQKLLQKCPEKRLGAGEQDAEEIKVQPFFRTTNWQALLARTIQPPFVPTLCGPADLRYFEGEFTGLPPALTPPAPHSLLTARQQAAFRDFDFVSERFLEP
T2 sequence (Q16512 whole entry): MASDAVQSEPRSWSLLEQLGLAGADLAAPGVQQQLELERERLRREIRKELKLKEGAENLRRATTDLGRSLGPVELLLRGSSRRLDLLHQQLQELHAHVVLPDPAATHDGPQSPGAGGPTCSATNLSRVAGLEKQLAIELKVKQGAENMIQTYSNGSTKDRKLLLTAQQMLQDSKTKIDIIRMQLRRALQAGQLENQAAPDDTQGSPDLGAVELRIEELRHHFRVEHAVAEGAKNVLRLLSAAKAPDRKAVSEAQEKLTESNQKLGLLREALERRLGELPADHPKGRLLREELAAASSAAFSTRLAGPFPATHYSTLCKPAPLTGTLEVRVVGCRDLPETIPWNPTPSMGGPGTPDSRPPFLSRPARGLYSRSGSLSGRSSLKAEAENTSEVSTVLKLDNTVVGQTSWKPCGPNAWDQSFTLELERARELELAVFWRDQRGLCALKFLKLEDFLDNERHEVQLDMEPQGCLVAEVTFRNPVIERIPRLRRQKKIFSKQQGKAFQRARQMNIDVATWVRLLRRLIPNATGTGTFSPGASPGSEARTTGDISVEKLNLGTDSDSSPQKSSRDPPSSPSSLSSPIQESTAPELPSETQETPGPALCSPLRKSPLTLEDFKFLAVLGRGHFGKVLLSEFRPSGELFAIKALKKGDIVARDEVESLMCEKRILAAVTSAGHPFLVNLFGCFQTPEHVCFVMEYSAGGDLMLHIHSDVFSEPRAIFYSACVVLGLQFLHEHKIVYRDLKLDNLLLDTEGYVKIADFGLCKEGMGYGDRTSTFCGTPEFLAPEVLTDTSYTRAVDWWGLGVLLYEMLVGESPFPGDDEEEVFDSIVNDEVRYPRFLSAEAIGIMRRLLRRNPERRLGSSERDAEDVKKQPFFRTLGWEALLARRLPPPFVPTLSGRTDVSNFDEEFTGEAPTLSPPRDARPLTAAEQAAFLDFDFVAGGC
T1 sequence (Q16513 whole entry): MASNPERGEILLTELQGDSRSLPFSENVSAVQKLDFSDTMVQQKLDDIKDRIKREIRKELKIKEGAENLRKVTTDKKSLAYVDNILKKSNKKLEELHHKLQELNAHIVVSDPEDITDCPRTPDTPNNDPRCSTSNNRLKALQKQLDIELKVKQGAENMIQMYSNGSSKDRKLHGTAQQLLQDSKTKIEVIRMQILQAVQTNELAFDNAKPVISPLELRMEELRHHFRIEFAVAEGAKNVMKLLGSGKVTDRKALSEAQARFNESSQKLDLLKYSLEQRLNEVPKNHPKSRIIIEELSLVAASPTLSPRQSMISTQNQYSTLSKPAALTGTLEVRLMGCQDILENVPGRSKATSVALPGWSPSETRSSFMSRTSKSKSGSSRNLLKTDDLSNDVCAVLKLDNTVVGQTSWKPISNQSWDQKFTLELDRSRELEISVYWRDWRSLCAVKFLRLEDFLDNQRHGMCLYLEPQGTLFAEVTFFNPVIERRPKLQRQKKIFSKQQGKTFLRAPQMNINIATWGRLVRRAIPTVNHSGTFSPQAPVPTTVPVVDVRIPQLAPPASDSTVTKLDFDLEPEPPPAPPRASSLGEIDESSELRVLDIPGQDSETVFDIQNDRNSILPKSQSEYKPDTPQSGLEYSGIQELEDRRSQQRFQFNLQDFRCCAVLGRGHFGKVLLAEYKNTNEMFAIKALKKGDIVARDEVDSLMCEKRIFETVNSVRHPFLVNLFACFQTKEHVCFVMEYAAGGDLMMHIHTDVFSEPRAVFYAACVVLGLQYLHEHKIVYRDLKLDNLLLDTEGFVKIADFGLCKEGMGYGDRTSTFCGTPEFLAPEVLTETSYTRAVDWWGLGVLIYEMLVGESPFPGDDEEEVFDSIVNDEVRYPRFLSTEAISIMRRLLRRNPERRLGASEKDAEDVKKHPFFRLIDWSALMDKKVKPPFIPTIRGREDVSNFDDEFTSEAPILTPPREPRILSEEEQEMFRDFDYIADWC

Compound | PKN2 Maximal fold activation [1, 8] | PKN1 Maximal fold activation [2] | PKN3 Maximal fold activation [3] | Ki [5, 9] | Ki [6, 10] | Ki [7, 11] | also measured
Phosphatidylserine | <2 fold | 15 fold | <2 fold |  |  |  | effect on PKN2 kinase activity [1]: not affected; PKN1 Maximal fold activation ([2]; listed as phosphatidylserine): 10–16 fold; EC50 [2]: 3000 ± 1000 nM
Nc1nc(Nc2ccc(S(N)(=O)=O)cc2)nn1C(=S)Nc1c(F)cccc1F [Compound 6, CDK1/2 inhibitor III] |  |  |  | 220 ± 20 nM | 34 ± 2 nM | 12 ± 2 nM | selectivity for PKN2 over PKN1 ([4]; from Ki values): 18 fold; selectivity for PKN2 over PKN3 ([4]; in words): only minimal selectivity; Isoform selectivity [4]: PKN2/3
phosphatidylinositol-3,4,5-triphosphate [PIP3] | <2 fold | 11 fold | <2 fold |  |  |  | effect on PKN2 kinase activity [1]: not affected; EC50 [2]: 2000 ± 1000 nM
CN(C)CCCn1cc(C2=C(c3c[nH]c4ccccc34)C(=O)NC2=O)c2ccccc21 [Compound 3, GF 109203X] |  |  |  | 79 ± 8 nM | 2300 ± 500 nM | 90 ± 20 nM | selectivity for PKN1/2 over PKN3 ([4]; from Ki values): at least 25 fold; Isoform selectivity [4]: PKN1/2
O=C1Nc2ccc3ncsc3c2/C1=C/c1c[nH]cn1 [Compound 5, PKR inhibitor] |  |  |  | 410 ± 50 nM | 240 ± 30 nM | 41 ± 7 nM | Isoform selectivity [4]: PKN2
CN(C(Cc1ccc(OS(=O)(=O)c2cccc3cnccc23)cc1)C(=O)N1CCN(c2ccccc2)CC1)S(=O)(=O)c1cccc2cnccc12 (stereo not shown) [Compound 11, KN62] |  |  |  | 2900 ± 700 nM |  | > 5000 nM | 
phosphatidylinositol-4,5-bisphosphate [PIP2] | 7 fold | 14 fold | <2 fold |  |  |  | effect on PKN2 kinase activity [1]: increased; EC50 ([1]; lipid activator, saturating ATP (500 μM), 3 μM peptide, 5 nM PKN2): 2000 ± 1000 nM; EC50 [2]: 5000 ± 1000 nM
Nc1ncnc2c1ncn2[C@@H]1O[C@H](COP(=O)(O)OP(=O)(O)O)[C@@H](O)[C@H]1O [ADP] |  |  |  |  |  |  | Ki ([5]; product inhibition, competitive with respect to ATP, 3 μM peptide, 31–1000 μM ATP, 1 nM enzyme, 100 μM arachidonic acid, read-out: PKN1 Ki): 53000 ± 4000 nM; Ki ([5]; product inhibition, non-competitive with respect to peptide, 50 μM ATP, 0.3–10 μM peptide, 1 nM enzyme, 100 μM arachidonic acid, read-out: PKN1 Kiapp): 170000 ± 14000 nM; Ki ([6]; product inhibition, competitive with respect to ATP, 5 μM peptide, 7.8–250 μM ATP, 4 nM enzyme, 5 μM arachidonic acid, read-out: PKN3 Ki): 69000 ± 5000 nM; Ki ([6]; product inhibition, non-competitive with respect to peptide, 50 μM ATP, 0.9–30 μM peptide, 4 nM enzyme, 5 μM arachidonic acid, read-out: PKN3 Kiapp): 320000 ± 12000 nM; Ki ([7]; product inhibition, competitive with respect to ATP, 2 μM peptide, 6–200 μM ATP, 2 nM enzyme, 100 μM arachidonic acid, read-out: PKN2 Ki): 26000 ± 4000 nM; Ki ([7]; product inhibition, non-competitive with respect to peptide, 20 μM ATP, 0.3–10 μM peptide, 2 nM enzyme, 100 μM arachidonic acid, read-out: PKN2 Kiapp): 65000 ± 5000 nM
Oc1ccc(-c2nc(-c3ccncc3)c(-c3ccc(F)cc3)[nH]2)cc1 [Compound 9, SB-202190] |  |  |  | > 5000 nM | 4 ± 0.3 nM | 2300 ± 400 nM | 
Cn1cc(C2=C(c3cn(CCCSC(=N)N)c4ccccc34)C(=O)NC2=O)c2ccccc21 [Compound 2, Ro 31-8220] |  |  |  |  | 170 ± 10 nM | 17 ± 2 nM | 
O=P(O)(O)O[C@@H]1[C@H](O)[C@H](O)[C@@H](OP(=O)(O)O)[C@H](OP(=O)(O)O)[C@H]1O [IP3, D-myo-inositol-1,3,5-triphosphate] | <2 fold | <2 fold | <2 fold |  |  |  | 
CCCCCCCC(=O)OC[C@H](CO)OC(=O)CCCCCCC [DAG, 1,2-dioctanoyl-sn-glycerol] | <2 fold | <2 fold | <2 fold |  |  |  | 
CO[C@@H]1[C@H](N(C)C(=O)c2ccccc2)C[C@H]2O[C@]1(C)n1c3ccccc3c3c4c(c5c6ccccc6n2c5c31)C(=O)NC4 [Compound 1, PKC412] |  |  |  |  | < 0.2 nM |  | 
O=S(=O)(c1cccc2cnccc12)N1CCCNCC1 [Compound 12, HA-1077] |  |  |  | 800 ± 100 nM |  |  | 
CNCCNS(=O)(=O)c1cccc2cnccc12 [Compound 10, H-8] |  |  |  | 1800 ± 300 nM | 10 ± 2 nM | 1800 ± 300 nM | 
H-PRLQRQERIFSKRRG-OH [PKN3-PRL] |  |  |  |  |  |  | Ki ([6]; competitive with respect to peptide substrate, 250 μM ATP, 0.9–30 μM peptide, 4 nM enzyme, 5 μM arachidonic acid, read-out: PKN3 Ki with respect to peptide substrate): 5400 nM; PKN3 αKi with respect to ATP ([6]; uncompetitive with respect to ATP, 6 μM peptide, 7.8–250 μM ATP, 4 nM enzyme, 5 μM arachidonic acid): 1.3 µM
